Assay results taken from ChEMBL document CHEMBL1201862, “PubChem BioAssay data set” (2004).
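All cell lines were grown in 96-well plates and treated with compound for 48 hours. GI50 is the concentration that inhibits growth by half.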 The source made the active and inactive calls. Rule as the data show it: active = GI50 up to about 1.1 µM and inactive = higher.

Experiments:
Assay in all cases: NCI anticancer screen, dose series, 48 h
RPMI-8226 = tested on: RPMI-8226
OVCAR-4 = tested on: OVCAR-4
SN12C = tested on: SN12C
MDA-N = tested on: MDA-N
ACHN = tested on: ACHN
LOX IMVI = tested on: LOX IMVI
A549 = tested on: A549
K562 = tested on: K562
A498 = tested on: A498
SF-539 = tested on: SF-539
T47D = tested on: T47D
SF-268 = tested on: SF-268
RXF 393 = tested on: RXF 393
SK-MEL-28 = tested on: SK-MEL-28
SNB-19 = tested on: SNB-19
PC-3 = tested on: PC-3
SK-MEL-5 = tested on: SK-MEL-5
U-251 = tested on: U-251
TK-10 = tested on: TK-10
M19-MEL = tested on: M19-MEL

| Compound | GI50 (RPMI-8226) | GI50 (OVCAR-4) | GI50 (SN12C) | GI50 (MDA-N) | GI50 (ACHN) | GI50 (LOX IMVI) | GI50 (A549) | GI50 (K562) | GI50 (A498) | GI50 (SF-539) | GI50 (T47D) | GI50 (SF-268) | GI50 (RXF 393) | GI50 (SK-MEL-28) | GI50 (SNB-19) | GI50 (PC-3) | GI50 (SK-MEL-5) | GI50 (U-251) | GI50 (TK-10) | GI50 (M19-MEL) |
| --- | --- | --- | --- | --- | --- | --- | --- | --- | --- | --- | --- | --- | --- | --- | --- | --- | --- | --- | --- | --- |
| COC(=O)c1ccc(CCc2cc(O)ccc2O)cc1 | 0.847 µM (active) | 10.8 µM (inactive) | 7.98 µM (inactive) | 5.94 µM (inactive) | 13.3 µM (inactive) | 6.12 µM (inactive) | 26.8 µM (inactive) | 2.15 µM (inactive) | 37.6 µM (inactive) | 3.66 µM (inactive) | 2.6 µM (inactive) | 5.68 µM (inactive) | 7.89 µM (inactive) | 16.6 µM (inactive) | 12 µM (inactive) | 4.3 µM (inactive) | 10.2 µM (inactive) | 7.46 µM (inactive) | 22.4 µM (inactive) |  |
| CCCCN(CCCC)CC(C(=O)Nc1ccccc1)/C(C)=N\NC(=O)c1ccncc1 (centres undefined) | > 100 µM (inactive) | > 100 µM (inactive) | > 100 µM (inactive) |  | > 100 µM (inactive) | 81.5 µM (inactive) | > 100 µM (inactive) | > 100 µM (inactive) |  | > 100 µM (inactive) |  | > 100 µM (inactive) | > 100 µM (inactive) | > 100 µM (inactive) | > 100 µM (inactive) |  | > 100 µM (inactive) | > 100 µM (inactive) | > 100 µM (inactive) | 68.9 µM (inactive) |
| CCOC(=O)c1ncn2c1[nH]c(=O)c1ccccc12 | > 100 µM (inactive) | > 100 µM (inactive) | > 100 µM (inactive) |  | > 100 µM (inactive) | > 100 µM (inactive) | > 100 µM (inactive) | > 100 µM (inactive) |  | > 100 µM (inactive) |  | > 100 µM (inactive) | > 100 µM (inactive) | > 100 µM (inactive) | > 100 µM (inactive) |  | > 100 µM (inactive) | > 100 µM (inactive) | > 100 µM (inactive) | > 100 µM (inactive) |
| CC(Oc1cc2oc(=O)cc(-c3ccccc3)c2cc1Cl)C(=O)O (centres undefined) |  | > 100 µM (inactive) | > 100 µM (inactive) |  | > 100 µM (inactive) | > 100 µM (inactive) | > 100 µM (inactive) | > 100 µM (inactive) | > 100 µM (inactive) | > 100 µM (inactive) |  | > 100 µM (inactive) | > 100 µM (inactive) | > 100 µM (inactive) | > 100 µM (inactive) |  | > 100 µM (inactive) | > 100 µM (inactive) | > 100 µM (inactive) | > 100 µM (inactive) |
| CN(C)c1ccc(/C=C2\C[N+](C)(C)C/C(=C\c3ccc(N(C)C)cc3)C2=O)cc1 | 3.47 µM (inactive) | 21.5 µM (inactive) | 20.5 µM (inactive) |  | 70.5 µM (inactive) | 14.9 µM (inactive) | 20.7 µM (inactive) | 7.98 µM (inactive) | > 100 µM (inactive) | 21.1 µM (inactive) | 16.5 µM (inactive) | 19.2 µM (inactive) | > 48.2 µM (inactive) | 15.3 µM (inactive) | 17.5 µM (inactive) |  | 11.6 µM (inactive) | 6.27 µM (inactive) | 78.7 µM (inactive) | 13.4 µM (inactive) |
| CCOC(=O)c1cc2c(cn1)[nH]c1cccc(N)c12 |  | > 100 µM (inactive) | > 100 µM (inactive) |  | > 100 µM (inactive) | > 100 µM (inactive) | > 100 µM (inactive) | > 100 µM (inactive) |  | > 100 µM (inactive) |  | > 100 µM (inactive) | > 100 µM (inactive) | > 100 µM (inactive) | > 100 µM (inactive) |  | > 100 µM (inactive) | > 100 µM (inactive) | > 100 µM (inactive) | > 100 µM (inactive) |
| C=CCN(N=O)C(=O)NCCCC(NC(C)=O)C(=O)NCc1ccccc1 (centres undefined) | > 100 µM (inactive) | > 100 µM (inactive) | > 100 µM (inactive) |  | > 100 µM (inactive) | > 100 µM (inactive) | > 100 µM (inactive) | > 100 µM (inactive) | > 100 µM (inactive) | 98.2 µM (inactive) |  | > 100 µM (inactive) | > 100 µM (inactive) | > 100 µM (inactive) | > 100 µM (inactive) |  | > 100 µM (inactive) | > 100 µM (inactive) | > 100 µM (inactive) | > 100 µM (inactive) |
| CC(C)(C)C(=O)Cc1cc2c(cc1C(=O)O)S(=O)(=O)NC(C(C)(C)C)=C2 | > 100 µM (inactive) | > 100 µM (inactive) | > 100 µM (inactive) |  | > 100 µM (inactive) |  | > 100 µM (inactive) | > 100 µM (inactive) | > 100 µM (inactive) |  |  | > 100 µM (inactive) |  | > 100 µM (inactive) | > 100 µM (inactive) |  |  | > 100 µM (inactive) | > 100 µM (inactive) | > 100 µM (inactive) |
| O=c1[nH]c2cccccc-2c1-c1nc2ccccc2[nH]1 | 28.5 µM (inactive) | 20.6 µM (inactive) | 31.6 µM (inactive) |  | 14.1 µM (inactive) | 14.9 µM (inactive) | 25 µM (inactive) | 34.5 µM (inactive) |  | 22.4 µM (inactive) |  | 14.9 µM (inactive) | 20.9 µM (inactive) | 20.3 µM (inactive) | 21.2 µM (inactive) |  | 18.7 µM (inactive) | 21.8 µM (inactive) | 92.7 µM (inactive) | 34.2 µM (inactive) |
| O=C(O)C12C=CC(C1)c1ccccc12 (centres undefined) | > 100 µM (inactive) | > 100 µM (inactive) | > 100 µM (inactive) |  | > 100 µM (inactive) | > 100 µM (inactive) | > 100 µM (inactive) | > 100 µM (inactive) | > 100 µM (inactive) |  |  | > 100 µM (inactive) |  | > 100 µM (inactive) | > 100 µM (inactive) |  | > 100 µM (inactive) | > 100 µM (inactive) | > 100 µM (inactive) | > 100 µM (inactive) |
| Cc1ccc(NC(=O)CCC(=O)C2CC(=O)CC/C2=N\NC(=O)c2cc3ccccc3cc2O)cc1C (centres undefined) | 25 µM (inactive) | 16.4 µM (inactive) | 48.9 µM (inactive) |  | 18.9 µM (inactive) |  | 25.1 µM (inactive) | 8.18 µM (inactive) | 38.4 µM (inactive) | 30.1 µM (inactive) |  | 17.3 µM (inactive) |  | 65 µM (inactive) | 40.7 µM (inactive) |  | 14.5 µM (inactive) | 40.1 µM (inactive) | 51.9 µM (inactive) | 27.4 µM (inactive) |
| CCCCn1c(-c2ccccc2)cs/c1=N\N=C1C=C(C(C)(C)C)C(=O)C(C(C)(C)C)=C1 |  | > 100 µM (inactive) | > 100 µM (inactive) |  | > 100 µM (inactive) | > 100 µM (inactive) | > 100 µM (inactive) | > 100 µM (inactive) | > 100 µM (inactive) | > 100 µM (inactive) |  | > 100 µM (inactive) | > 100 µM (inactive) |  | > 100 µM (inactive) |  |  | > 100 µM (inactive) | > 100 µM (inactive) | > 100 µM (inactive) |
| COc1ccc(C2S/C(=C\c3cc(OC)c(OC)c(OC)c3)C(=O)N2NC(=O)Cc2ccccc2)cc1 (centres undefined) | > 100 µM (inactive) | > 100 µM (inactive) | > 100 µM (inactive) |  | > 100 µM (inactive) | > 100 µM (inactive) | > 100 µM (inactive) | > 100 µM (inactive) |  | > 100 µM (inactive) |  | > 100 µM (inactive) | > 100 µM (inactive) | > 100 µM (inactive) |  |  | 22.1 µM (inactive) | > 100 µM (inactive) | > 100 µM (inactive) | > 100 µM (inactive) |
| CCOC(=O)NC(=O)c1cn(CCN2CCN(C(=O)NCCCCCCNC(=O)N3CCN(CCn4cc(C(=O)NC(=O)OCC)c(=O)[nH]c4=O)CC3)CC2)c(=O)[nH]c1=O | > 100 µM (inactive) | > 100 µM (inactive) | > 100 µM (inactive) |  | > 100 µM (inactive) | > 100 µM (inactive) | > 100 µM (inactive) | > 100 µM (inactive) | > 100 µM (inactive) | > 100 µM (inactive) |  | > 100 µM (inactive) | > 100 µM (inactive) | > 100 µM (inactive) | > 100 µM (inactive) |  | > 100 µM (inactive) | > 100 µM (inactive) | > 100 µM (inactive) | > 100 µM (inactive) |
| COC(=O)C(CC(C)=O)CS(=O)(=O)CC(=O)C(=O)Nc1cccc([N+](=O)[O-])c1 (centres undefined) | > 100 µM (inactive) | > 100 µM (inactive) | > 100 µM (inactive) |  | > 100 µM (inactive) | > 100 µM (inactive) | > 100 µM (inactive) | > 100 µM (inactive) | > 100 µM (inactive) | > 100 µM (inactive) |  | > 100 µM (inactive) | > 100 µM (inactive) | > 100 µM (inactive) | > 100 µM (inactive) |  | > 100 µM (inactive) | > 100 µM (inactive) | > 100 µM (inactive) | > 100 µM (inactive) |
| COC(=O)c1cc(C)n(NC(=O)OC(C)(C)C)c1C | > 100 µM (inactive) |  | > 100 µM (inactive) |  | > 100 µM (inactive) | > 100 µM (inactive) | > 100 µM (inactive) | > 100 µM (inactive) | > 100 µM (inactive) | > 100 µM (inactive) |  | > 100 µM (inactive) | > 100 µM (inactive) | > 100 µM (inactive) | > 100 µM (inactive) |  | > 100 µM (inactive) | > 100 µM (inactive) | > 100 µM (inactive) | > 100 µM (inactive) |
| Nc1ccn(CCOC(c2ccccc2)P(=O)(O)O)c(=O)n1 (centres undefined) |  |  | > 100 µM (inactive) |  | > 100 µM (inactive) | > 100 µM (inactive) | > 100 µM (inactive) |  | > 100 µM (inactive) | > 100 µM (inactive) |  | > 100 µM (inactive) | > 100 µM (inactive) | > 100 µM (inactive) | > 100 µM (inactive) |  | > 100 µM (inactive) | > 100 µM (inactive) | > 100 µM (inactive) | > 100 µM (inactive) |
